Measurements: US20100278751A1, “RADIOLABELED 2-AMINO-4-ALKYL-6-(HALOALKYL)PYRIDINE COMPOUNDS AND THEIR USE IN DIAGNOSTIC IMAGING” (WASHINGTON UNIVERSITY, priority 2009, published 2010)
Like-named read-outs stand apart in the source and are kept apart here.

What was measured:
iNOS [1] = molecular target: T1, iNOS (Mus musculus, UniProt P29477); test: Blocking studies of tracer uptake in LPS-treated mice; type: in vivo
T1 construct: from tissue
Protocol: This example describes blocking studies. […] P., et al., J. Biol. Chem. 272: 4959-4963, 1997). […] At 1 h post injection, % ID in lung was determined.

iNOS [2] = molecular target: T2, iNOS (Homo sapiens, UniProt P35228); test: iNOS activity, nitric oxide synthase screening kit (IC50); type: biochemical
Protocol: The IC50 for inhibiting iNOS was determined for various compounds, as shown in FIG. 3 and FIG. 4 In these experiments, IC50 determinations for a compound was made by measuring iNOS activity in the presence of a compound at multiple concentrations. iNOS activity was measured by assays using the nitric oxide synthase screening kit (GE Healthcare Biosciences Corp., Piscataway, N.J.) following the manufacturer's protocols.

iNOS [3] = molecular target: T2, iNOS; details: cited from earlier work
nNOS = nNOS (Homo sapiens, UniProt P29475); test: nNOS selectivity, nitric oxide synthase screening kit (IC50); type: biochemical
Protocol: (§1) All assays were performed using the nitric oxide synthase screening kit (GE Healthcare Biosciences Corp., Piscataway, N.J.) following the manufacturer's protocols.

eNOS = eNOS (Homo sapiens, UniProt P29474); test: eNOS selectivity, nitric oxide synthase screening kit (IC50); type: biochemical
Protocol: as §1

[4] = Biodistribution in control vs. LPS treated mice; type: in vivo, C57BL/6 mice
Protocol: This example describes the results of in vivo studies on the biodistribution of iNOS inhibitors. The biodistribution studies were performed in mature male C57BL/6 mice. One group of mice was treated with bacterial lipopolysaccharide (LPS) (10 mg/kg, administered intravenously) to induce iNOS expression, and a control group was left untreated.

[5] = In vitro stability in heparinized rat whole blood; type: in vitro ADME, Sprague-Dawley rat; details: 37° C.
Protocol: The in vitro stability of [^18F]compound 14 was tested by using heparinized blood from an adult male Sprague-Dawley rat. [^18F]compound 14 was relatively stable in the whole blood for 2 h at 37° C. At 1 h, approximately 80% of the activity recovered from lysed whole blood was observed as [^18F]compound 14, and at 2 h, approximately 75% of the recovered activity was still in the form of [^18F]compound 14.

iNOS [6] = molecular target: T1, iNOS; test: microPET imaging study in LPS-treated and control mice; type: in vivo; details: LPS intratracheally treated mouse vs control mouse
Protocol: Two mice, one intratracheally treated with LPS, and a control mouse, were injected with [^18F]compound 14. […] This difference in tracer accumulation is consistent with the difference in accumulation of iNOS described between LPS-treated and control mice in the preceeding examples.

[7] = In vivo stability (percent parent compound in plasma/blood) in rats; parameters: species or system Sprague-Dawley rats
Protocol: Adult male Sprague-Dawley rats were injected with [^18F]compound 14, and at 5 and 30 minutes post injection, plasma samples were obtained. Supernatants from the plasma samples were analyzed by silica gel radio-TLC and reversed phase HPLC. After 30 minutes, the percent parent compound was only 20.2%. Additionally, within 5 minutes post injection, only 40.3% of the activity in the blood was [^18F]compound 14, which was confirmed by HPLC co-elution with non-radioactive compound 14. According to the HPLC analysis, the major metabolite, constituting 50% of the activity in blood at 5 minutes post injection, was very polar but was not free [^18F] fluoride. This observation is also consistent with the low bone uptake reported in biodistribution studies.

[8] = iNOS, read-out: IC50 (standards for measuring IC50)
[9] = iNOS, read-out: IC50 of tested compounds
[10] = measured against SEITU, L-NIL and 2-AP as standards, read-out: IC50 for iNOS
[11] = read-out: Selectivity (IC50) iNOS

T2 sequence (P35228 whole entry): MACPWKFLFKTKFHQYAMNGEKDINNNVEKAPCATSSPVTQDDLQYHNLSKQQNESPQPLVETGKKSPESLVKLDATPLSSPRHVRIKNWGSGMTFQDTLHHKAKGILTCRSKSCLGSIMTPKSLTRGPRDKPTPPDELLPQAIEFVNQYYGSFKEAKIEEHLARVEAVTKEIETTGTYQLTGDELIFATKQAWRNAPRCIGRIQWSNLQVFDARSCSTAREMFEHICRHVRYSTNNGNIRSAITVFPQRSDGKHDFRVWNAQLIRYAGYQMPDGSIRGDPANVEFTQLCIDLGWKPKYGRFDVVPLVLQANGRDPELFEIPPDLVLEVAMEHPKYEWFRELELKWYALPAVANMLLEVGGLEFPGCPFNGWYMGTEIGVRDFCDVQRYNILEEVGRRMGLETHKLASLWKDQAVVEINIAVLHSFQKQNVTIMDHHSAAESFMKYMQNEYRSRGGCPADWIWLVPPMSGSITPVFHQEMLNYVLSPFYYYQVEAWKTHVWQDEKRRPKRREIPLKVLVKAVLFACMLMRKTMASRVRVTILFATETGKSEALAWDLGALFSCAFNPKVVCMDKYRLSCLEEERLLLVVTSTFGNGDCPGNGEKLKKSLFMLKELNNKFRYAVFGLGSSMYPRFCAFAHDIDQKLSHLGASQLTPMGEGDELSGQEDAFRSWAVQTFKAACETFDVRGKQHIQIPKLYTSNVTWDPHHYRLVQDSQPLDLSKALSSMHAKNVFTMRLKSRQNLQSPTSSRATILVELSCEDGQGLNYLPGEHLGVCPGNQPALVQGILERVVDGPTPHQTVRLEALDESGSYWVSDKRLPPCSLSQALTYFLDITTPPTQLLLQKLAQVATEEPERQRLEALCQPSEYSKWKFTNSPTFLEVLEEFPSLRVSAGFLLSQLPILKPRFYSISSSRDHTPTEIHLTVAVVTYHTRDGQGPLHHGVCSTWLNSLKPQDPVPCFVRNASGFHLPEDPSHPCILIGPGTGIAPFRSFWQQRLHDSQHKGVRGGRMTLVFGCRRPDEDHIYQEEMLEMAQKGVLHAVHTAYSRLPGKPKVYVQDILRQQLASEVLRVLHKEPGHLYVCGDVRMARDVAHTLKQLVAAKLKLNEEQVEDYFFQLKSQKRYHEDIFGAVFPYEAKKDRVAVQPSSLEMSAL

Cc1ccnc(N)c1 [2-amino-4-methylpyridine]
blocking of increased uptake of [18F]compound 14 (iNOS [1]; blocker 10 mg/kg intravenously): failed to block

CC(=N)NCc1cccc(CN)c1 [1400 W, N-(3-(aminomethyl)benzyl)acetamidine]
tracer uptake in the lungs and blood blocked (iNOS [1]; blocker 5 mg/kg i.v. immediately before [18F]compound 14, 1 h post injection): 32%

Nc1ncc2[nH]cnc2n1 [Compound 2-AP, 2-aminopurine, reference compound]
IC50 (iNOS [2]; [8]): 108 ± 34.5 nM
IC50 (iNOS [3]; reported value for standards): 170 nM

Cc1cc(N)nc(CC(C)C)c1 [Compound 11]
melting point: 59 to 61 °C
IC50 (iNOS [2]; [9]): 193 ± 38 nM

Cc1cc(N)nc(CC(C)F)c1 (stereo not shown) [Compound 14]
IC50 (nNOS): 493 ± 80.8 nM
IC50 (iNOS [2]; [9]): 54.3 ± 8.9 nM
IC50 (iNOS [2]; [10]): < 190 nM
IC50 (iNOS [2]; [11]): 54.3 ± 8.9 nM
IC50 (eNOS): 1520 ± 300 nM

CC(C)=Cc1cc(C)cc(N)n1 [Compound 25]
IC50 (iNOS [2]; [9]): 685 ± 127 nM

Cc1cc(N)nc(CCCF)c1 [Compound 52]
IC50 (nNOS): 514 ± 83.3 nM
IC50 (iNOS [2]; [9]): 57.6 ± 5.3 nM
IC50 (iNOS [2]; [10]): < 190 nM
IC50 (iNOS [2]; [11]): 57.6 ± 5.3 nM
IC50 (eNOS): 1430 ± 158 nM

C/C=C/c1cc(C)cc(N)n1 [DZ(III)-73]
IC50 (iNOS [2]; [9]): 282 ± 48.6 nM

Cc1cc(N)nc(CC(C)O)c1 (stereo not shown) [DZ(III)-77/Compound 14]
IC50 (iNOS [2]; [9]): 1780 ± 395 nM

Cc1cc(N)nc(CC(C)CCF)c1 (stereo not shown) [DZ(IV)-93]
IC50 (iNOS [2]; [9]): 731 ± 87 nM

Cc1cc(N)nc(CCCCF)c1 [DZ(IV)-120]
IC50 (iNOS [2]; [9]): 170 ± 26.5 nM

CCSC(=N)N [SEITU, S-ethylisothiourea, reference compound]
IC50 (iNOS [2]; [8]): 30.5 ± 4.6 nM
Ki (iNOS [3]; reported value): 32 nM

Cc1cc(N)nc(CC(C)[18F])c1 (stereo not shown) [[^18F]compound 14]
Biodistribution Blood ([4]; Control mice, 5 min): 2.37 ± 0.18 % ID/g
Biodistribution Bone ([4]; Control mice, 5 min): 1.52 ± 0.36 % ID/g
Biodistribution Brain ([4]; Control mice, 5 min): 1.60 ± 0.17 % ID/g
Biodistribution Heart ([4]; Control mice, 5 min): 1.50 ± 0.12 % ID/g
Biodistribution Kidney ([4]; Control mice, 5 min): 20.6 ± 2.4 % ID/g
Biodistribution Liver ([4]; Control mice, 5 min): 33.2 ± 3.3 % ID/g
Biodistribution Lung ([4]; Control mice, 5 min): 3.33 ± 0.28 % ID/g
Biodistribution Muscle ([4]; Control mice, 5 min): 1.25 ± 0.06 % ID/g
Biodistribution Blood ([4]; Control mice, 30 min): 1.22 ± 0.16 % ID/g
Biodistribution Bone ([4]; Control mice, 30 min): 2.26 ± 0.55 % ID/g
Biodistribution Brain ([4]; Control mice, 30 min): 0.28 ± 0.02 % ID/g
Biodistribution Heart ([4]; Control mice, 30 min): 0.60 ± 0.05 % ID/g
Biodistribution Kidney ([4]; Control mice, 30 min): 7.30 ± 0.66 % ID/g
Biodistribution Liver ([4]; Control mice, 30 min): 10.7 ± 0.3 % ID/g
Biodistribution Lung ([4]; Control mice, 30 min): 1.14 ± 0.13 % ID/g
Biodistribution Muscle ([4]; Control mice, 30 min): 0.71 ± 0.31 % ID/g
Biodistribution Blood ([4]; Control mice, 1 h): 0.31 ± 0.04 % ID/g
Biodistribution Bone ([4]; Control mice, 1 h): 2.57 ± 0.64 % ID/g
Biodistribution Brain ([4]; Control mice, 1 h): 0.11 ± 0.02 % ID/g
Biodistribution Heart ([4]; Control mice, 1 h): 0.19 ± 0.02 % ID/g
Biodistribution Kidney ([4]; Control mice, 1 h): 2.20 ± 0.25 % ID/g
Biodistribution Liver ([4]; Control mice, 1 h): 2.59 ± 0.49 % ID/g
Biodistribution Lung ([4]; Control mice, 1 h): 0.31 ± 0.06 % ID/g
Biodistribution Muscle ([4]; Control mice, 1 h): 0.27 ± 0.18 % ID/g
Biodistribution Blood ([4]; Control mice, 2 h): 0.27 ± 0.22 % ID/g
Biodistribution Bone ([4]; Control mice, 2 h): 5.59 ± 4.20 % ID/g
Biodistribution Brain ([4]; Control mice, 2 h): 0.07 ± 0.03 % ID/g
Biodistribution Heart ([4]; Control mice, 2 h): 0.08 ± 0.02 % ID/g
Biodistribution Kidney ([4]; Control mice, 2 h): 0.80 ± 0.27 % ID/g
Biodistribution Liver ([4]; Control mice, 2 h): 0.74 ± 0.23 % ID/g
Biodistribution Lung ([4]; Control mice, 2 h): 0.15 ± 0.03 % ID/g
Biodistribution Muscle ([4]; Control mice, 2 h): 0.34 ± 0.27 % ID/g
tracer uptake, LPS-treated vs non-treated mice ([4]; LPS 10 mg/kg intravenously, Table 4 and FIG. 11): greater uptake
Biodistribution Blood ([4]; LPS treated mice, 5 min): 3.69 ± 0.38 % ID/g
Biodistribution Bone ([4]; LPS treated mice, 5 min): 1.59 ± 0.15 % ID/g
Biodistribution Brain ([4]; LPS treated mice, 5 min): 1.81 ± 0.09 % ID/g
Biodistribution Heart ([4]; LPS treated mice, 5 min): 2.03 ± 0.06 % ID/g
Biodistribution Kidney ([4]; LPS treated mice, 5 min): 26.7 ± 4.1 % ID/g
Biodistribution Liver ([4]; LPS treated mice, 5 min): 24.6 ± 3.1 % ID/g
Biodistribution Lung ([4]; LPS treated mice, 5 min): 4.32 ± 0.32 % ID/g
Biodistribution Muscle ([4]; LPS treated mice, 5 min): 1.64 ± 0.09 % ID/g
Biodistribution Blood ([4]; LPS treated mice, 30 min): 2.09 ± 0.35 % ID/g
Biodistribution Bone ([4]; LPS treated mice, 30 min): 3.70 ± 1.20 % ID/g
Biodistribution Brain ([4]; LPS treated mice, 30 min): 0.52 ± 0.15 % ID/g
Biodistribution Heart ([4]; LPS treated mice, 30 min): 1.02 ± 0.16 % ID/g
Biodistribution Kidney ([4]; LPS treated mice, 30 min): 10.9 ± 2.8 % ID/g
Biodistribution Liver ([4]; LPS treated mice, 30 min): 7.06 ± 0.28 % ID/g
Biodistribution Lung ([4]; LPS treated mice, 30 min): 1.84 ± 0.27 % ID/g
Biodistribution Muscle ([4]; LPS treated mice, 30 min): 1.06 ± 0.40 % ID/g
Biodistribution Blood ([4]; LPS treated mice, 1 h): 0.86 ± 0.09 % ID/g
Biodistribution Bone ([4]; LPS treated mice, 1 h): 4.30 ± 0.90 % ID/g
Biodistribution Brain ([4]; LPS treated mice, 1 h): 0.19 ± 0.03 % ID/g
Biodistribution Heart ([4]; LPS treated mice, 1 h): 0.41 ± 0.10 % ID/g
Biodistribution Kidney ([4]; LPS treated mice, 1 h): 3.95 ± 0.53 % ID/g
Biodistribution Liver ([4]; LPS treated mice, 1 h): 2.63 ± 0.52 % ID/g
Biodistribution Lung ([4]; LPS treated mice, 1 h): 0.73 ± 0.17 % ID/g
Biodistribution Muscle ([4]; LPS treated mice, 1 h): 0.78 ± 0.47 % ID/g
Biodistribution Blood ([4]; LPS treated mice, 2 h): 0.23 ± 0.05 % ID/g
Biodistribution Bone ([4]; LPS treated mice, 2 h): 3.77 ± 1.41 % ID/g
Biodistribution Brain ([4]; LPS treated mice, 2 h): 0.07 ± 0.03 % ID/g
Biodistribution Heart ([4]; LPS treated mice, 2 h): 0.12 ± 0.04 % ID/g
Biodistribution Kidney ([4]; LPS treated mice, 2 h): 0.91 ± 0.63 % ID/g
Biodistribution Liver ([4]; LPS treated mice, 2 h): 0.42 ± 0.15 % ID/g
Biodistribution Lung ([4]; LPS treated mice, 2 h): 0.18 ± 0.09 % ID/g
Biodistribution Muscle ([4]; LPS treated mice, 2 h): 0.23 ± 0.13 % ID/g
activity recovered from lysed whole blood observed as parent ([5]; 1 h): approximately 80%
recovered activity still in the form of parent ([5]; 2 h): approximately 75%
tracer accumulation in lungs (microPET) (iNOS [6]): accumulated in the lungs of the LPS-treated mouse, but not in the control mouse
activity in the blood that was parent compound ([7]; 5 minutes post injection): 40.3%
major (very polar) metabolite, share of the activity in blood ([7]; 5 minutes post injection, HPLC): 50%
percent parent compound ([7]; plasma, 30 minutes post injection): 20.2%
